In patent publication US10517862B2, “Fused heterocyclic compound derivative and application thereof” (NHWA PHARMA. CORPORATION, priority 2015, dated 2019):

Assays:
[1] = system: α1 norepinephrine receptor; test: α1 norepinephrine receptor binding assay (3H-prazosin, rat cortex membrane); details: for affinity with α1 (in words): summary of in vitro assay; for α1 Inhibition rate (%): test compound final concentration 10^−5 M, 3H-prazosin, rat cortex membrane
Excerpt: Preparation of Receptor Membrane of Norepinephrine
α1 Norepinephrine Receptor Binding Assay

[2] = target: Histamine H1 receptor (Rattus norvegicus, UniProt P31390); test: Histamine H1 receptor binding assay (3H-pyrilamine, rat cerebellum membrane); details: for inhibition at 10 µM: read-out: H1 Inhibition rate (%); for affinity with H1 (in words): summary of in vitro assay
Method: The supernatant was discarded to give pellets, and homogenate F was added again to the pellets for washing. Centrifugation was conducted and repeated 3 times.
(2) 100 μL of membrane preparation was added into each reaction tube.

[3] = target: T1, 5HT1A receptor (Rattus norvegicus, UniProt P19327); test: 5HT1A receptor binding assay (3H-8-OH-DPAT, rat striatum membrane); details: for affinity with 5HT1A (in words): summary of in vitro assay; for inhibition at 10 µM: test compound final concentration 10^−5 M, 3H-8-OH-DPAT, rat striatum membrane, read-out: 5HT1A Inhibition rate (%)
T1 construct: Rats were decapitated on ice; from tissue; host or cells: rat brain striatum
T1 sequence (P19327 1-422): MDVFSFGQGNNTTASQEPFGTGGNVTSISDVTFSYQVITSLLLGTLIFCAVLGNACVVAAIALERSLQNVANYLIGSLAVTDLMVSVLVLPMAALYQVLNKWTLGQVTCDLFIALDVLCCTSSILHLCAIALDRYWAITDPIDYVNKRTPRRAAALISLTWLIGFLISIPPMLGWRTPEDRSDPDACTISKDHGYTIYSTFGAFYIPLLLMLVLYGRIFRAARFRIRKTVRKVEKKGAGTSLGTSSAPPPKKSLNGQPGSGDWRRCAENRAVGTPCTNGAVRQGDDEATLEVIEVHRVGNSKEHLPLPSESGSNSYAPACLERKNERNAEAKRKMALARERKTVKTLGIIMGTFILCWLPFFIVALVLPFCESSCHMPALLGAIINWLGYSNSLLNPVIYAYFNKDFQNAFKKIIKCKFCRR
Method: Preparation of 5HT1A Membrane
Rats were decapitated on ice. […] Incubation at 37° C. was conducted for 10 min. […] Centrifugation was conducted at 12000 rpm, 4° C. for 20 min. […] Centrifugation was conducted and repeated 3 times.
(§1) Materials for the Receptor Binding Assay

[4] = target: T2, D3 receptor (Homo sapiens, UniProt P35462); test: D3 receptor assay ([3H]-Spiperone, HEK-293 cells); type: binding; details: for affinity with D3 (in words): summary of in vitro assay; for inhibition at 10 µM: test compound final concentration 10 μmol/L, [3H]-Spiperone, HEK-293 cells, read-out: D3 Inhibition rate (%)
T2 construct: expressed in transfected cells; host or cells: HEK-293
Method: Then the cells were centrifuged at 1000 rpm for 5 min, the supernatant was discarded, and the cell pellets was collected and stored in a −20° C. fridge for reservation. It was re-suspended with Tris-Cl (pH 7.4) when the assay was performed.
Tris was divided into aliquots by Genetimes Technology Inc.
Competitive binding test for receptors: 20 μl of each of the test compounds and 20 μl of the radioactive ligand together with 160 μl of the receptor proteins were added into the reaction tubes, and the final concentrations of the test compound and the positive drug were all 10 μmol/L. After 50 min of incubation in 30° C. water bath, the tubes were immediately moved to ice bath to terminate the reactions. GF/C glass fiber filter papers were used for rapid sucking filtration on a Millipore cell sample collector, 3 ml of elution buffer (50 mM Tris-HCl, PH 7.4) was applied for 3 times, and microwave was applied for 4-5 min for drying. The filter paper was moved into 0.5 ml centrifuge tube, and 500 μl of liposoluble scintillation cocktail was added. The tubes were allowed to stand still for over 30 min in dark, and the intensities of radioactivity were measured by a counter.

[5] = system: mice of Kunming breed; test: MK-801 induced high activity in mice; type: in vivo; details: Mus musculus, 1.5 h, po, MK-801 0.1 mg/kg ip, spontaneous activities in 90 min
Method: Example 54: MK-801 Induced High Activity—the In Vivo Anti-Schizophrenia Activity of the Compounds
Healthy mice of Kunming breed (with half male and half female, (20±2) g) were provided by Qinglongshan Animal Cultivation Center, Nanjing.
Ascorbic acid was provided by Sinopharm Chemical Reagent Co. Ltd.
MK-801 was produced by Sigma Company, USA; the formulation method: 0.1% vitamin C was used to formulate a 1 mg/ml solution.
Test positive drugs: haloperidol, clozapine, risperidone, olanzapine, aripiprazole, ziprasidone, quetiapine.
Tween 80, with the concentration of 10%.
Mice with qualified body weight were selected, and randomly divided into blank group, model group, positive control group (risperidone group) and drug group. […] 1 h after the administration, 0.1% concentration of ascorbic acid was intraperitoneally injected to the blank group at 0.1 ml/10 g; and the model group, the positive control group (30 min) and the drug group were intraperitoneally injected the MK-801 solution at 0.1 mg/kg. Subsequently, the spontaneous activities of the mice of each group in 90 min were measured.

[6] = target: T3, 5HT2C receptor (Rattus norvegicus, UniProt P08909); test: 5HT2C receptor binding assay ([3H]-mesulergine, rat striatum membrane); details: for affinity with 5HT2C (in words): summary of in vitro assay; for inhibition at 10 µM: test compound final concentration 10^−5 M, [3H]-mesulergine, rat striatum membrane, read-out: 5HT2C Inhibition rate (%)
T3 construct: from tissue; host or cells: rat brain striatum
T3 sequence (P08909 33-460): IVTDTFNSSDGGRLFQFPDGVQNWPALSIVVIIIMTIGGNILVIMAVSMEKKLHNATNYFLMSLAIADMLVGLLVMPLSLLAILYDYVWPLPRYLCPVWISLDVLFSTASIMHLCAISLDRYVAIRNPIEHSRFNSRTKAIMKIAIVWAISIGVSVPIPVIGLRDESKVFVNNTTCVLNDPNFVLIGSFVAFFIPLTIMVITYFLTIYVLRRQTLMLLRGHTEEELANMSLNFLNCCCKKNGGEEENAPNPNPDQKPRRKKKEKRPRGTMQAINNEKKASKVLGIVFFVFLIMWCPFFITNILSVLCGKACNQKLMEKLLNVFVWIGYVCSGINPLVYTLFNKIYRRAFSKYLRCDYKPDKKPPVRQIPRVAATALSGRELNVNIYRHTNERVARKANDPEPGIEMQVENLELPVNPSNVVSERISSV
Method: Preparation of 5HT2C Membrane
Rats were decapitated on ice. […] Centrifugation was conducted.
as §1

[7] = system: D2 receptor; test: D2 receptor binding assay (3H-Spiperone, rat striatum membrane); details: for affinity with D2 (in words): summary of in vitro assay; for D2 Inhibition rate (%): test compound final concentration 10^−5 M, 3H-Spiperone, rat striatum membrane
Method: Preparation of D2 Membrane
Rats were decapitated on ice. […] The weight of the homogenized tubes were adjusted using a balance, and centrifugation was conducted. […] Centrifugation was conducted.
as §1

[8] = in vivo; details: both sexes, mouse, in vivo, po; single intragastric administration in mice; read-out: LD50 (po, mg/kg)

Histamine H1 receptor, sequence (P31390 whole entry): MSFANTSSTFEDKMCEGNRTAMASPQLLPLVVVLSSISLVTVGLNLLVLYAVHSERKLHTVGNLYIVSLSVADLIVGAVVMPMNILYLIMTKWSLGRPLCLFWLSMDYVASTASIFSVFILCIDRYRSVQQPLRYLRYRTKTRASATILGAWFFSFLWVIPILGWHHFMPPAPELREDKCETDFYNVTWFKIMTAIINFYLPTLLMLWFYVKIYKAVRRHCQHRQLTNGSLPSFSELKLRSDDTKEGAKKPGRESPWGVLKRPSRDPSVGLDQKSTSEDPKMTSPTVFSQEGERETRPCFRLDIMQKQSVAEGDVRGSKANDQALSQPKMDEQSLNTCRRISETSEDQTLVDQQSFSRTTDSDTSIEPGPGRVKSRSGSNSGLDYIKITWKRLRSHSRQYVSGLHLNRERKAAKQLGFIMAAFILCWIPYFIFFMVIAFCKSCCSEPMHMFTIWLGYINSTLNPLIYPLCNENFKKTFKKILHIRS
T2 sequence (P35462 whole entry): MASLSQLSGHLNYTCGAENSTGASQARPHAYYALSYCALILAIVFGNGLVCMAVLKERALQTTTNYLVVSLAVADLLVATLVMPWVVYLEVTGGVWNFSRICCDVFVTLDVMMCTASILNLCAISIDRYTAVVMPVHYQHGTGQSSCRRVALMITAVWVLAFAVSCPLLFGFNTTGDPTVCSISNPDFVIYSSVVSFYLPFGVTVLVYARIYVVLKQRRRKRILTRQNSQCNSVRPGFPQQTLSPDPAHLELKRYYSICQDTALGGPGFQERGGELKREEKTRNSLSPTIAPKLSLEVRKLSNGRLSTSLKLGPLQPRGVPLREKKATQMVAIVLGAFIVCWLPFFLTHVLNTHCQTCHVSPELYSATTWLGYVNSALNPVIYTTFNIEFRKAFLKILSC

SMILES: O=C(CCN1CCC(c2noc3cc(F)ccc23)CC1)c1cc2c3c(c1)CCN3C(=O)CC2 [Compound 12]
- affinity with α1 (in words) [1]: low affinities
- α1 Inhibition rate (%) [1]: 58.91%
- inhibition at 10 µM [2]: 41.4%
- affinity with H1 (in words) [2]: low affinities
- affinity with 5HT1A (in words) [3]: high affinities
- inhibition at 10 µM [3]: 96.5%
- affinity with D3 (in words) [4]: high affinities
- inhibition at 10 µM [4]: 94.9%
- ED50 [5]: 0.06 mg/kg
- affinity with 5HT2C (in words) [6]: low affinities
- inhibition at 10 µM [6]: 56.5%
- affinity with D2 (in words) [7]: high affinities
- D2 Inhibition rate (%) [7]: 97.75%
- LD50 at 7 days [8]: > 2000 mg/kg

SMILES: O=C(CCCN1CCC(c2noc3cc(F)ccc23)CC1)c1cc2c3c(c1)CCC(=O)N3CCC2 [Compound 5]
- affinity with α1 (in words) [1]: low affinities
- α1 Inhibition rate (%) [1]: 43.75%
- inhibition at 10 µM [2]: 44.5%
- affinity with H1 (in words) [2]: low affinities
- affinity with 5HT1A (in words) [3]: high affinities
- inhibition at 10 µM [3]: 99.8%
- affinity with D3 (in words) [4]: high affinities
- inhibition at 10 µM [4]: 98%
- ED50 [5]: 2.2 mg/kg
- affinity with 5HT2C (in words) [6]: low affinities
- inhibition at 10 µM [6]: 66.8%
- affinity with D2 (in words) [7]: high affinities
- D2 Inhibition rate (%) [7]: 99.40%
- LD50 at 7 days [8]: > 2000 mg/kg
